Legend:
[1] = molecular target: T1, GluN1/GluN2A-containing NMDARs (Rattus norvegicus, UniProt P35439+Q00959); test: Ca2+ influx assay (Fluo-4) in primary cultured rat neurons; assay type: cell-based
T1 construct: endogenous in cells; host or cells: primary rat cortical neurons, 12-14 days in culture
Description: Rat neurons isolated from the entire cortex were plated onto poly-d-lysine-coated 96-well plates. After 12-14 days in culture, the level of intracellular calcium was assayed using the Fluo-4 No Wash calcium assay kit according to the manufacturer's protocol (Thermo Fisher Scientific). In brief, the neuronal culture medium was removed and replaced with a calcium assay buffer (CAB) containing […], 20 mM HEPES, 2.5 mM probenacid, and Fluo4-NW dye mix (pH 7.4; Thermo Fisher Scientific). The cells were then incubated for 45 minutes at 37° C. for dye loading and then 15 minutes at 25° C. To isolate calcium signals mediated by NMDARs, NMDA was used as an agonist (10 μM), and 2 μM glycine were added. The antagonist […] was used to block the GluN1/GluN2A NMDARs. The calcium fluorescence measurement was performed at 25° C. after 60 seconds of recording with a FLEXStation II benchtop scanning fluorometer (Molecular Devices); then, the NMDAR agonist NMDA (10 μM)/glycine (2 μM) was added at 180 seconds. Fluorescence plate reading continued for a total of 30 mins with use of an excitation of 485 nm, an emission of 538 nm, and a cutoff of […]. The data were recorded using SoftMax Pro software (Molecular Devices). […]

[2] = test system: CREB phosphorylation (pCREB) on Serine 133; test: pCREB levels in hippocampal slices; set-up: species or system rat; conditions: 10 μM; 30 min exposure; FIG. 21
Description: Male Sprague Dawley rats 4-8 weeks old (125-200 gm) were decapitated, and their brains were dissected rapidly and placed into ice-cold chopping saline [containing (in mM): 110 sucrose, 60 NaCl, 3 KCl, 1.25 NaH2PO4, 28 NaHCO3, 5 D-glucose, 0.5 CaCl2, 7 MgCl2, and 0.6 ascorbate, saturated with 95% O2/5% CO2]. Then 400 μm transverse slices were prepared with a Vibratome Series 1000 (Pelco, Ted Pella, Redding, Calif.). Slices were transferred immediately into a 1:1 mix of chopping saline and normal ACSF [containing (in mM): 125 NaCl, 2.5 KCl, 1.25 NaH2PO4, 25 NaHCO3, 10 D-glucose, 2 CaCl2, and 1 MgCl2, saturated with 95% O2/5% CO2] and maintained at room temperature for at least 90 min. Then the slices were transferred to ACSF at 32° C. in a submersion chamber for 45-60 min before pharmacological stimulation.
Brain tissues or cultured cells were lysed on ice in the lysis buffer and then the solution was centrifuged at 14,000 rpm for 10 min at 4° C. Next, the supernatant was collected and protein concentrations were determined using a BCA protein assay kit (Thermo Scientific, 23227). […] The band density of each protein was quantified by the Bio-Rad Quantity One software and the relative optical density was analyzed relative to loading total-CREB on the same membrane. […]

T1 sequence (Q00959 23-1464, other chains not shown): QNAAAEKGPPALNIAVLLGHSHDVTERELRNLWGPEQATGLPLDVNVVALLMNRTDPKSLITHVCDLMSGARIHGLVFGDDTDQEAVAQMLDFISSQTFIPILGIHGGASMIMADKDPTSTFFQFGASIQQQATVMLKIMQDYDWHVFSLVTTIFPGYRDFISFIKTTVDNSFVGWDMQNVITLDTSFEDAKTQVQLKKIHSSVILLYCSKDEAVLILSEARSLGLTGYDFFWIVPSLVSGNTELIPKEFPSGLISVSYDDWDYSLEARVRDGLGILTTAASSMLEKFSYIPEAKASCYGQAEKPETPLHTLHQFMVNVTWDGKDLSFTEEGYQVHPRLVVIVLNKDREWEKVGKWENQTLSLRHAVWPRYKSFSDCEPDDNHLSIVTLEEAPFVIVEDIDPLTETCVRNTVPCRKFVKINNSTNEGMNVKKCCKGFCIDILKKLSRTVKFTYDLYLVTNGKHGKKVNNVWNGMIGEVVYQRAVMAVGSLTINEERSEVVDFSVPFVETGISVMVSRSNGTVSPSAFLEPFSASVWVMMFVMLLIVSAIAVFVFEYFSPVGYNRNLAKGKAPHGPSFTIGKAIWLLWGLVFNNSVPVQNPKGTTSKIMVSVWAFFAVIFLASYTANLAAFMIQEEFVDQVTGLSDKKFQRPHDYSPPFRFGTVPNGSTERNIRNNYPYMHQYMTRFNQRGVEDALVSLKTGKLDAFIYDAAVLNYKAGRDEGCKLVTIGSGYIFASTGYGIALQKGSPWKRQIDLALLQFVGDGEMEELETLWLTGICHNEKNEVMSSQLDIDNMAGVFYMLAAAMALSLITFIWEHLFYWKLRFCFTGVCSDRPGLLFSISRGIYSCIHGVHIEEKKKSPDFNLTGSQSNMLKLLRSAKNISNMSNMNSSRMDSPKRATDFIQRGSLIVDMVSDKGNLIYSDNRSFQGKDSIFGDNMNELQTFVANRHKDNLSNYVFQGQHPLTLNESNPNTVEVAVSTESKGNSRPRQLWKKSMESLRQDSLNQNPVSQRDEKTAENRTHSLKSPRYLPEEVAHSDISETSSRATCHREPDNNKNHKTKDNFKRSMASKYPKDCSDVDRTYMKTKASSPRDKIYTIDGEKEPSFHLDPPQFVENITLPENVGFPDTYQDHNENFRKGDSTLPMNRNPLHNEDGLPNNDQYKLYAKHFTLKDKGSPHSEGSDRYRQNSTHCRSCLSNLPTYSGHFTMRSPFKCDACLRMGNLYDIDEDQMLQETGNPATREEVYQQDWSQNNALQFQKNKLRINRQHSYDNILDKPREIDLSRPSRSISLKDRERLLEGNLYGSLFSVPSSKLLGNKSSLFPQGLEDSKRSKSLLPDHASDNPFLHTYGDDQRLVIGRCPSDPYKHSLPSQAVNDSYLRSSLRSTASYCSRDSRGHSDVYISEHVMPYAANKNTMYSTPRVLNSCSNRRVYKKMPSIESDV

CCOc1cc(Cl)c(Cl)c(/C=N/NC(=O)c2ccccc2Br)c1O [Npam43, (E)-2-bromo-N′-(2,3-dichloro-5-ethoxy-6-hydroxybenzylidene)benzohydrazide]
Ca2+ influx in response to Npam43 with co-applied NVP-AAM0077 ([1]; GluN2A antagonist co-applied): marked reduction of Ca^2+ influx | Ca2+ influx fluorescence signal ([1]; NMDA 10 μM, glycine 2 μM): increased the Ca^2+ influx fluorescence signal | pCREB levels in hippocampal slices [2]: significantly enhanced pCREB levels
